# Where two headings read alike, the source gives them in different places.
# Tests used:
# Lactobacillus strains = settings: cited from earlier work
# [1] = test system: bacteria in contaminated yeast slurry; assay: Bacterial enumeration on TSA + cycloheximide plates after ClO2 treatment of contaminated yeast slurry; type: cell-based
# Experimental: (§2) The yeast was concentrated by centrifugation (4 min, 4000 rpm) and resuspended in the original, contaminated supernatant to 20 g/L, 200 g/L or 300 g/L. Contamination was verified microscopically. The three slurries produced were cooled in an ice-water bath treated with either ClO2 at 0, 10, 50, 250, 500, 750 and 1000 ppm, serially diluted and plated on YM agar (3.0 g/L yeast extract, 3.0 g/L malt extract, 5 g/L peptone, 10 g/L glucose, 20 g/L agar)+chloramphenicol (34 μg/mL) plates for yeast and TSA (15 g/L pancreatic casein digest, 5 g/L enzymatic soy meal digest, 5 g/L NaCl, 15 g/L agar)+cycloheximide (0.05 μg/mL) plates for bacterial enumeration. Plates were incubated overnight at 30° C. and 37° C. for yeast and bacteria, respectively. Plates were counted the next day and bacterial colonies were verified microscopically.
# [2] = test system: contaminated recombinant Saccharomyces cultures; assay: Batch fermentation of xylose to ethanol inoculated with chlorine dioxide-treated, recycled yeast slurry; type: cell-based
# Experimental: Saccharomyces cells from a frozen glycerol stock were used to inoculate 4 L of Sc Inoculation Medium (pH 6). The inoculum was grown with shaking at 160 rpm for 24 h at 30° C. The cells were harvested by centrifugation (4000 rpm for 5 min) and the entire cell pellet was resuspended in about 50 mL of the supernatant and this was used to inoculate 20 L of Sc Propagation Medium (pH 5.0). A fed-batch fermentation was run for 4 days with mild aeration of 56 slpm and 500 rpm agitation by mechanical stirring. The pH was maintained at 5.0 and the temperature was maintained at 30° C. for the first two days followed by 28° C. for the last two days. A 60 g/L glucose solution was fed to the vessel at a rate of 83.3 mL/h. The culture was sampled three times daily and the samples analyzed for cell growth, xylose and glucose. At the end of the fermentation, the entire broth was harvested and the cells concentrated by centrifugation (4000 rpm for 5 min in multiple 4 L Nalgene bottles). The cell pellets were resuspended to a concentration of 22.5 g cell mass/L. This was used to inoculate 10 L of Sc Fermentation Medium. Batch fermentation was run for 2-3 days with 1 slpm aeration, 250 rpm mechanical agitation. The pH was maintained at 6.0 and the temperature maintained at 28-30° C. The culture was sampled three times daily and the samples analyzed for cell growth, xylose glucose and ethanol.
# (§1) Xylose and glucose concentrations of each sample were measured as follows: 2 mL of the broth were centrifuged at 14,000 rpm for 3 min to remove cells and the supernatant filtered through a 0.2 μm syringe filter. 10× dilutions of the supernatant were prepared in 5 mM sulfuric acid solution. Dilutions were analyzed via HPLC using an Agilent 1100 Series HPLC stem equipped with an 1100 Series Autosampler and Pumping System and Chemstation control software. A Varian MetaCarb 87H column maintained at 50° C. was used for separation. The eluant was a 5 mM aqueous sulfuric acid solution with a flow rate of 0.600 mL/min. Glucose, ethanol, xylose and xylitol were quantified using an Agilent 1100 Series Refractive Index Detector. Acetic acid and lactic acid were measured using an Agilent 1200 Series Variable Wavelength Detector.
# […] The yeast slurry was treated with chlorine dioxide at 50 ppm, 300 ppm and 500 ppm. The yeast slurry was used to re-inoculate fermentors containing 10 L of Sc Fermentation Medium run in batch mode at a starting yeast concentration targeted at 22.5 g/L yeast, as described in Example 2a. The culture was sampled three times daily and the samples analyzed for xylose, lactic acid and ethanol as described in Example 2a.
# [3] = test system: bacterially contaminated Candida tropicalis culture; assay: Batch fermentation of xylose to xylitol inoculated with chlorine dioxide-treated, recycled yeast slurry; type: cell-based; settings: yeast slurry treated with 100 ppm at room temperature (FIG. 5)
# Experimental: as §1
# C. tropicalis cells from a frozen glycerol stock used to inoculate 2 L of Ct Inoculation Medium. The inoculum was grown with shaking at 160 rpm for 24 h at 30° C. The cells were harvested by centrifugation and the entire cell pellet was used to inoculate 2 L of Ct Xylose Medium. This culture was grown with shaking at 160 rpm for 24 h at 30° C. and the broth was used to inoculate 10 L of Ct Fermentation Medium. […] The culture was sampled three times daily and the samples analyzed for cell growth, xylose and xylitol as described in Example 2a. […]
# Saccharomyces yeast = settings: for impact on the viability of the yeast: 500 ppm or higher
# Experimental: as §2
# [4] = 200 g/L yeast slurry treated at 300 ppm (FIG. 3B)
# [5] = 300 g/L yeast slurry treated at 500 ppm (FIG. 3C)
structure (smiles),measurement,setting,value
OO [hydrogen peroxide],reducing the viability of Lactobacillus,Lactobacillus strains; one of the Lactobacillus species tested,effective
[O][Cl+][O-] [chlorine dioxide],chlorine dioxide dosage that effectively suppresses bacterial growth,[1]; 20 g/L yeast cell suspension,≥ 250 ppm
same,chlorine dioxide dosage required for effective bacterial decontamination,[1]; 200 g/L yeast suspension,≥ 500 ppm
same,chlorine dioxide dosage required for effective bacterial decontamination,[1]; 300 g/L yeast suspension,≥ 500 ppm
same,ethanol product produced versus culture from slurry treated with 50 ppm,[2]; [4],significantly more
same,unwanted lactic acid byproduct produced versus culture from slurry treated with 50 ppm,[2]; [4],less
same,ethanol product produced versus culture from slurry treated with 50 ppm,[2]; [5],significantly more
same,unwanted lactic acid byproduct produced versus culture from slurry treated with 50 ppm,[2]; [5],less
same,rate of xylose consumption,"[2]; cells treated with the higher chlorine dioxide dosages (300, 500 ppm) vs 50 ppm",significantly faster
same,xylitol fermentation product produced versus culture inoculated with the untreated slurry,[3],produced more
same,impact on yeast viability,"Saccharomyces yeast; 20 g/L yeast cell suspension, 250 ppm or higher",little to no impact
same,impact on the viability of the yeast,Saccharomyces yeast; 200 g/L yeast suspension,little or no impact
same,impact on the viability of the yeast,Saccharomyces yeast; 300 g/L yeast suspension,little or no impact
O=S(O)O [sulfite],susceptibility of bacterial contaminants (two Lactobacillus strains),Lactobacillus strains; treatment of yeast cells concentrated by filtration,susceptible to sulfite only in the presence of oxygen
